From publication PMC6321567 (2018)

Test system: 22HT (DNA, G4) AGGGTTAGGGTTAGGGTTAGGG
Test: CD melting at 293 nm
Settings: 10 mM Tris-HCl pH 7.2, 3 equiv. ligand

Compound: CC[n+]1c(/C=C/c2ccc3c(c2)c2ccccc2n3CCCCn2ccnc2)sc2ccccc21
- ΔTm (100 mM KCl, 2 µM DNA, SD of Tm ±0.5 °C): 4.3 °C
- ΔTm (100 mM NaCl, 2 µM DNA, SD of Tm ±0.5 °C): 4.5 °C
- ΔTm (no added Na+ or K+, ligand-induced G4 folding, Tm without ligand <14 °C): > 30.6 °C
